Test results: patent US20240374646A1, “COMPOSITION FOR INHIBITING INFLAMMATION OR AGING OF STEM CELLS, AND METHOD FOR INHIBITING INFLAMMATION OR AGING BY USING SAME” (MITOIMMUNE THERAPEUTICS INC., priority 2021, published 2024)

What was measured:
[1] = system: TNF-α/IFN-γ-exposed hPD-MSCs; assay: Reactive oxygen species (ROS) assay, H2DCFDA; format: cell-based, human; conditions: TNF-α/IFN-γ-exposed MSC control (TI) treated with compound; FIG. 3F
Description: To investigate ROS levels, a total of 5×10^3 hPD-MSCs were seeded into each well of a 96-well black-microplate (SPL, 33196) and cultured for 24 hours, and then the cells were washed and cultured in a pre-warmed Hanks' balanced salt solution (14025092, ThermoFisher) containing 50 μM H2DCFDA (D399; ThermoFisher) for 30 minutes. Fluorescence intensity at a wavelength of 555 nm was measured at a wavelength of 488 nm using a Multi-Mode MicroPlate Reader (FlexStation 3, Molecular Devices, Silicon Valley, CA, USA), and the results are shown in FIG. 3F.

[2] = system: NANOG; assay: Real-time qPCR, NANOG stemness gene expression; format: cell-based, human; conditions: TNF-α/IFN-γ-exposed MSCs (TI) treated with compound; FIG. 1B
Description: (§1) Human placenta-derived mesenchymal stem cells (hPD-MSCs) were harvested from inside the placental chorion, and the harvested cells were cultured in an alpha-Minimum Essential medium (Cytiva, Marlborough, MA, USA) supplemented with 10% fetal bovine serum (ThermoFisher, Waltham, MA, USA), 1% penicillin/streptomycin (ThermoFisher, Waltham, MA, USA), 25 ng/mL human fibroblast growth factor-4 (Peprotech, Rocky Hill, NJ, USA) and 1 μg/mL heparin (Merck, San Francisco, CA, USA). A total of 1×10^5 hPD-MSCs were seeded in a cell culture dish (90×20 mm) (SPL, Pocheon, Korea) and cultured at 37° C. in an incubator containing 5% CO2. The cells were subcultured every 4 days until reaching 70 to 80% confluency. Expanded cells were obtained at passage 12 or 13. During subculture, viable cells were stained with Trypan blue (Merck) and the number of cells was manually counted.
(§2) In a passage for sample extraction, hPD-MSCs were cultured for 24 hours in a medium with or without an example compound (5-[(1,1-dioxido-4-thiomorpholinyl)methyl]-2-phenyl-N-(tetrahydro-2H-pyran-4-yl)-1H-indole-7-amine) while including 2.5 ng/mL TNF-α (Peprotech) and 25 ng/mL IFN-γ (Peprotech).
(§3) In the present experiment, the expression levels of stem cell differentiation-related genes and cell cycle-related genes were analyzed by qPCR. […]

[3] = system: IL-1β; assay: Real-time qPCR, SASP factor IL-1β; format: cell-based, human; conditions: vs MSCs exposed to TNF-α/IFN-γ; FIG. 4A
Description: (§4) Real-time qPCR was performed using an Easy-Spin Total RNA Kit (iNtRON, Seongnam, Korea) to extract total RNA from hPD-MSCs and RNA concentration was adjusted to 100 ng/μL using a microplate spectrophotometer (Epoch™ Microplate Spectrophotometer, BioTek, Winooski, VT, USA), and the extracted RNA was reverse transcribed into cDNA using RT PreMix (dT20) (Bioneer, Seoul, Korea) using a SimpliAmp Thermal Cycler (Life Technologies, Carlsbad, CA, USA). Real-time qPCR was performed using a real-time PCR machine (CFX Connect, Bio-Rad, Hercules, CA, USA), SYBR Green Supermix (Bio-Rad) and the relevant primers, and all experiments were performed in triplicate for statistical analysis.
(§5) In the present experiment, the expression of IL-1β, IL-6, and monocyte chemotactic protein-1 (MCP-1), which are SASP-associated factors of the untreated MSC control, the TNF-α/IFN-γ-exposed MSC control (TI), and the experimental group treated with the example compound in the TNF-α/IFN-γ-exposed MSC control was analyzed by real-time qPCR. As the real-time qPCR analysis method, the same method described in Experimental Example 1-2 above was used, and the results are shown in FIGS. 4A to 4C.

[4] = system: TNF-α/IFN-γ-exposed hPD-MSCs; assay: Oxygen consumption rate (OCR), Seahorse XFp Extracellular Flux Analyzer; format: cell-based, human
Description: An oxygen consumption rate was measured to assess a mitochondrial metabolic state using a Seahorse XFp Extracellular Flux Analyzer (Agilent, Santa Clara, CA, USA). A total of 10,000 cells/well were seeded in Seahorse XFp cell culture miniplates and cultured with or without TNF-α, IFN-γ and the example compound for 24 hours prior to analysis. The growth medium was replaced with a Seahorse XF base medium containing 2 mM L-glutamine, 5.5 mM D-glucose, and 1 mM sodium pyruvate according to the composition of α-MEM. Cells were treated with 1 μM oligomycin, 0.5 μM FCCP, and 0.5 μM rotenone/antimycin A during the assay. The OCR was measured for 2 minutes after mixing for 3 minutes, and this process was repeated 12 times. A basal OCR was normalized according to the protein concentration determined by BCA analysis.
The OCRs of the untreated MSC control, the TNF-α/IFN-γ-exposed MSC control (TI), and the experimental group treated with the example compound in the TNF-α/IFN-γ-exposed MSC control were measured by the above method, and the results are shown in FIG. 3A.
The basal respiration, ATP production amount, proton leakage, and spare respiratory capacity (SRC) for each of the above samples are shown in FIGS. 3B to 3E.

[5] = system: p16; assay: Real-time qPCR, p16 cell cycle-related gene expression; format: cell-based, human; conditions: TNF-α/IFN-γ-exposed MSCs treated with compound; FIG. 1C
Description: as §1, §2, §3

[6] = system: TNF-α/IFN-γ-exposed hPD-MSCs; assay: Cell viability at each concentration of the example compound; format: cell-based; conditions: TNF-α/IFN-γ exposure, different concentrations of compound; FIG. 1D
Description: as §1, §2
Meanwhile, upon exposure to TNF-α/IFN-γ and treatment with the example compound, cell viability was evaluated, and the results are shown in FIG. 1D.

[7] = system: mitofusion 2 (MFN2); assay: Real-time qPCR, mitochondrial dynamics gene MFN2; format: cell-based, human; conditions: vs TNF-α/IFN-γ-exposed MSC control (TI); FIG. 2B
Description: as §4
To investigate mitochondrial dynamics, real-time qPCR was performed to analyze the expression of dynamin-related protein 1 (DRP1), which is a mitochondrial division-related gene, and mitofusion 1 (MFN1) and mitofusion 2 (MFN2), which are […] mitochondrial membrane fusion-related genes. As the real-time qPCR analysis method, the same method described in Experimental Example 1-2 above was used, and the results are shown in FIG. 2B.

[8] = system: IL-6; assay: Real-time qPCR, SASP factor IL-6; format: cell-based, human; conditions: vs MSCs exposed to TNF-α/IFN-γ; FIG. 4B
Description: as §4, §5

SMILES: O=S1(=O)CCN(Cc2cc(NC3CCOCC3)c3[nH]c(-c4ccccc4)cc3c2)CC1 [example compound, 5-[(1,1-dioxido-4-thiomorpholinyl)methyl]-2-phenyl-N-(tetrahydro-2H-pyran-4-yl)-1H-indole-7-amine]
- ROS value [1]: reduced to the level of the untreated MSC control
- NANOG expression (relative to untreated MSC control) [2]: significantly increased to a level similar to that of the untreated MSC control
- decrease of IL-1β expression [3]: about 55%
- spare respiratory capacity (SRC) ([4]; TNF-α/IFN-γ-exposed MSC control treated with compound, FIG. 3E): almost the same value as the untreated MSC control
- oxygen consumption rate (OCR) ([4]; TNF-α/IFN-γ-exposed MSCs, 24 hours, FIG. 3A): restored TNF-α/IFN-γ-exposed MSCs to quiescence
- decrease of basal respiration ([4]; vs TNF-α/IFN-γ-exposed MSC control (TI), FIG. 3B): about 80 pmol/min/cell
- downregulation of oxygen consumption amount for ATP production ([4]; vs TNF-α/IFN-γ-exposed MSC control (TI), FIG. 3C): about 70 pmol/min/cell
- p16 expression (relative to untreated MSC control) [5]: remarkably decreased
- cell viability [6]: high
- reduction of MFN2 expression [7]: ~50%
- IL-6 expression level [8]: decreased
